As a reminder, the LD50 is the dose at which mortality reaches 50%.

Series [1] is described as follows: Acute toxicity to mice, intravenous. The conditions noted are these: in vivo, male mouse DC1, i.v., 3 days observation. From the text:
Toxicological properties of the compounds of formula (I): […]
The acute toxicities of the compounds of formula (I) (see results in the above Table) have been determined on the male mouse DC1 (Charles River), by the intravenous method. The LD50 have been calculated, after 3 days observation, by the cumulative method of J. J. Reed and H. Muench (Amer. J. Hyg., 27, 493, 1938).

Series [2] concerns ventricular arhythmia caused by the aconitine. The series can be described thus: Aconitine test on the rat (delay of ventricular arhythmia caused by perfused aconitine). Particulars: iv, read-out: Antiarhythmic activity, aconitine test on the rat, ED50. Format: in vivo. The protocol:
The principle of the method rests on the induction time of the ventricular arhythmia caused by the aconitine which is slowly fed by perfusion into rats. An antiarhythmic substance retards the appearance of the arhythmia and the delay is proportional to the activity of the substance.
Groups of 5 male rats were used. An individual anesthesia was effected (10% urethane: 1 g/kg/ip) in order to permit a catheterization of the vein of the penis. The electrocardiogram was recorded. At time T=0 the substance studied was injected in the form of an aqueous solution, at the rate of 2.5 ml of solution per kg in 30 seconds. At time T=60 seconds, say 30 seconds after the end of the injection, the aconitine was perfused at the rate of 20 μg per minute up to the appearance of supraventricular extra systoles. The time of perfusion of the aconitine was noted.
The results are expressed by an ED50, which is the dose of product, in mg/kg, increasing by 50% the time of perfusion of the aconitine in comparison with the perfusion time of aconitine for the control animals.

Series [3] relates to fibrillations caused by an inhalation of chloroform. As to the kind of experiment: Chloroform test on the mouse (protection against fibrillations caused by inhalation of chloroform). Format: in vivo. The conditions noted are these: ip, 20 min, read-out: Antiarhythmic activity, chloroform test on the mouse, AD50. The protocol:
The product to be tested was administered intraperitoneally 20 minutes before chloroformic intoxication and the possible protection against the arhythmia was shown by recording of the electrocardiogram, which was effected from the appearance of the apnoea. The activity of the products is expressed by an AD50 (dose of product in mg/kg which protects 50% of the animals).

[4] abbreviates: dose which protects 50% of the animals, intraperitoneal, 20 minutes before chloroform.

Structures can show the parent of a compound that is named as a salt. Where two headings read alike, the source gives them in different places. Bounds are passed on as bounds.

`C=C[C@H]1CNCC[C@H]1CC[C@@H](O)c1ccnc2ccc(OC)cc12` [Example 7, 3-[3(R)-ETHENYL 4(R)-PIPERIDYL]-1-(6-METHOXY-4-QUINOLYL)-1(R)-PROPANOL]: in series [1], the LD50 at 72 h was determined as 33 mg/kg. In addition, the results for the ED50 in series [2] and in series [3] were 0.45 mg/kg and 3 mg/kg, respectively.
`CC[C@H]1CNCC[C@H]1CC[C@H](O)c1ccnc2ccc(OC)cc12` [8 (1(S)-propanol isomer)] gave a 50% lethal dose (LD50) at 72 h in series [1] of 17 mg/kg. The figures for the ED50 in series [2] and in series [3] (setting [4]) were 0.58 mg/kg and 2.5 mg/kg, respectively.
In the case of `C=C[C@H]1CNCC[C@H]1CC[C@H](O)c1ccnc2ccc(OC)cc12` [Example 6, 3-[3(R)-ETHENYL 4(R)-PIPERIDYL]-1-(6-METHOXY-4-QUINOLYL)-1(S)-PROPANOL], in series [1], the median lethal dose (LD50) at 72 h worked out at 20.3 mg/kg. Moreover, the ED50 was found to be 0.43 mg/kg in series [2] and 3 mg/kg in series [3].
In series [1], `CC(C)(C)c1cc(C(O)CCC2CCNCC2)c2ccccc2n1` (racemic) [Example 12, 1-[2-(1,1-DIMETHYL-ETHYL)-4-QUINOLYL]-3-(4-PIPERIDYL)-1-PROPANOL] displayed an LD50 at 72 h of 26 mg/kg. Also, the ED50 in series [2] amounted to 0.8 mg/kg.
`OC(CCC1CCNCC1)c1cc(-c2ccccc2)nc2ccccc12` (racemic) [Example 4, 1-(2-PHENYL-4-QUINOLYL)-3-(4-PIPERIDYL)-1-PROPANOL] came in with a median lethal dose (LD50) at 72 h in series [1] of 21 mg/kg. In addition, the ED50 stood at 1.22 mg/kg in series [2] and 2.5 mg/kg in series [3].
Molecule `C=C[C@H]1C[N@@]2CC[C@H]1C[C@@H]2[C@@H](O)c1ccnc2ccc(OC)cc12` [Quinidine sulfate, reference compound] showed a median lethal dose (LD50) at 72 h in series [1] of 60 mg/kg. Moreover, the ED50 was determined as 7.5 mg/kg in series [2] and 18 mg/kg in series [3] (setting [4]).
As to `C=C[C@@H]1CN(C)CC[C@H]1CC[C@H](O)c1ccnc2ccc(OC)cc12` [9 (3(S)-ethenyl isomer)], the LD50 at 72 h in series [1] stood at 33 mg/kg. Also, the ED50 in series [2] is 1.4 mg/kg; in series [3] (setting [4]) it was greater than 5 mg/kg.
In the case of `C=C[C@H]1CNCC[C@H]1CCC(O)c1ccnc2ccc(OC)cc12` (mixture of isomers) [Example 5, Mixture of 3-[3(R)-ETHENYL 4(R)-PIPERIDYL]-1-(6-METHOXY-4-QUINOLYL)-1-(R)-PROPANOL and 3-[3(R)-ETHENYL 4(R)-PIPERIDYL]-1-(6-METHOXY-4-QUINOLYL)-1(S)-PROPANOL], the LD50 at 72 h in series [1] is 21.5 mg/kg. For the same molecule, the ED50 in series [2] came to 0.44 mg/kg; in series [3] it was 3 mg/kg.
For `CC[C@H]1CNCC[C@H]1CC[C@@H](O)c1ccnc2ccc(OC)cc12` [8 (1(R)-propanol isomer)], in series [1], the median lethal dose (LD50) at 72 h was found to be 29 mg/kg. Further, the ED50 stood at 0.65 mg/kg in series [2] and 2.5 mg/kg in series [3] (setting [4]).
In series [1], `C=C[C@H]1CN(C)CC[C@H]1CC[C@H](O)c1ccnc2ccc(OC)cc12` [9 (3(R)-ethenyl isomer)] gave an LD50 at 72 h of 19 mg/kg. In addition, the ED50 worked out at 1 mg/kg in series [2] and 5 mg/kg in series [3] (setting [4]).

Source of the values: US4613607A, “Medicaments based on derivatives of 1-(4-quinolyl)-2-(4-piperidyl)-ethanol or 1-(4-quinolyl)-3-(4-piperidyl)-propanol” (Pharmuka Laboratoires, priority 1980, dated 1986).
